Assays:
[1] = molecular target: GST-CBP(1081-1197) bromodomain (Homo sapiens (Human), UniProt Q92793); experiment: CBP AlphaScreen Assay; details: binding to biotin-H4(1-21) Ac-K5/8/12/16
Method: (§1) Specific binding of the CBP or BRD4 bromodomain to the acetylated peptide derived from the H4 histone substrate (tetra acetylated H4(1-21) Ac-K5/8/12/16) was measured in absence or presence of inhibitors. The GST tagged bromodomains of CBP (1081-1197) and BRD4 (49-170) were obtained from BPS Bioscience and binding to the biotinylated H4(1-21) Ac-K5/8/12/16 (AnaSpec. 64989) was assessed via AlphaScreen technology (Perkin Elmer).
(§2) 5 nM GST-CBP(1081-1197) and 20 nM biotin-H4(1-21) Ac-K5/8/12/16 (AnaSpec. 64989) were incubated with varying concentrations of CBP inhibitors in 15 μL of buffer containing 50 mM HEPES 7.5, […], 1 mM TCEP, and 0.003% Tween-20. After 30 minutes incubation at room temperature, 15 μL of detection buffer (BPS Bio. 33006) containing 7 μg/mL of Glutathione AlphaLisa acceptor beads (Perkin Elmer AL109) and 14 μg/mL of Streptavidin donor beads (Perkin Elmer 676002) was then added to the previous mixture. The reaction was incubated for an additional 2 hours at room temperature, and the AlphaScreen signal was quantified using the Envision Multilabel plate reader. As negative control, GST-CBP(1081-1197) was incubated with the non-acetylated biotin-H4(1-21) peptide(AnaSpec. 62555) and in presence of 0.25% of final DMSO concentration.
(§3) the binding of 2.5 nM of BRD4(49-170) to 10 nM biotin-H4(1-21) Ac-K5/8/12/16 (AnaSpec. 64989) was assessed following the same procedure described for the CBP assay. The standard dose response curves were fitted by Genedata Screener software using the variable-slope model: Signal=Signalnegative control+(SignalDMSO control−Signalnegative control)/(1+(IC50/Dose)^Hill slope).
(§4) Only Signal and Dose in the equation were treated as know values.

BRD4(49-170) bromodomain = BRD4(49-170) bromodomain (Homo sapiens (Human), UniProt O60885); experiment: BRD4 AlphaScreen Assay; details: binding to biotin-H4(1-21) Ac-K5/8/12/16
Method: as §1, §2, §3, §4

Sequence of GST-CBP(1081-1197) bromodomain (Q92793 1081-1197): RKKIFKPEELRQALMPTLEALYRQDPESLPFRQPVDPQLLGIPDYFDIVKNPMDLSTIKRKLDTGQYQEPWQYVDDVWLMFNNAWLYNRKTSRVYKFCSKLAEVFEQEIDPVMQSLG

Row | SMILES | IC50 [1] [nM] | IC50 (BRD4(49-170) bromodomain) [nM]
1 | CC1C(=O)N(C)Cc2c(-c3c(F)ccc4nc(-c5cnn(C)c5)c(C(F)(F)F)cc34)nc(C3CCOCC3)n21 (stereo not drawn) [Example 35, 1-(6-Fluoro-2-(1-methyl-1H-pyrazol-4-yl)-3-(trifluoromethyl)quinolin-5-yl)-5,7-dimethyl-3-(tetrahydro-2H-pyran-4-yl)-7,8-dihydroimidazo[1,5-a]pyrazin-6(5H)-one] | 1200 | 25000
2 | CC1C(=O)N(C)Cc2c(-c3cccc4cc(-c5ccn(C)n5)ncc34)nc(C3CCOCC3)n21 (stereo not drawn) [Example 86, 5,7-dimethyl-1-(3-(1-methyl-1H-pyrazol-3-yl)isoquinolin-8-yl)-3-(tetrahydro-2H-pyran-4-yl)-7,8-dihydroimidazo[1,5-a] pyrazin-6(5H)-one] | 1 | 232
3 | CC1C(=O)N(C)Cc2c(-c3cc4c(-c5cnn(C)c5)nn(C)c4cc3F)nc(C3=CCOCC3)n21 (stereo not drawn) [Example 42, 3-(3,6-Dihydro-2H-pyran-4-yl)-1-(6-fluoro-1-methyl-3-(1-methyl-1H-pyrazol-4-yl)-1H-indazol-5-yl)-5,7-dimethyl-7,8-dihydroimidazo[1,5-a]pyrazin-6(5H)-one] | 28 | 3330
4 | CC1C(=O)N(C)Cc2c(-c3c(F)ccc4cc(C5CCOCC5)ncc34)nc(C3CCOCC3)n21 (single isomer, unassigned) [Example 34b, 1-(7-Fluoro-3-(tetrahydro-2H-pyran-4-yl)isoquinolin-8-yl)-5,7-dimethyl-3-(tetrahydro-2H-pyran-4-yl)-7,8-dihydroimidazo[1,5-a]pyrazin-6(5H)-one] | 8 | 1230
5 | CC1C(=O)N(C)Cc2c(-c3ccc4sccc4c3)nc(C3CC3)n21 (stereo not drawn) [Example 52, 1-(benzo[b]thiophen-5-yl)-3-cyclopropyl-5,7-dimethyl-7,8-dihydroimidazo[1,5-a] pyrazin-6(5H)-one] | 94 | 487
6 | CC1C(=O)N(C)Cc2c(-c3cccc4cc(C5CCOCC5)ncc34)nc(C3CC3)n21 (stereo not drawn) [Example 58, 3-cyclopropyl-5,7-dimethyl-1-(3-(tetrahydro-2H-pyran-4-yl)isoquinolin-8-yl)-7,8-dihydroimidazo[1,5-a] pyrazin-6(5H)-one] | 2 | 188
7 | CC1C(=O)N(C)Cc2c(-c3cccc4nc(-c5cnn(C)c5)c(C(F)F)cc34)nc(C3CN(CC(F)F)C3)n21 (stereo not drawn) [Example 22, 3-(1-(2,2-Difluoroethyl)azetidin-3-yl)-1-(3-(difluoromethyl)-2-(1-methyl-1H-pyrazol-4-yl)quinolin-5-yl)-5,7-dimethyl-7,8-dihydroimidazo[1,5-a]pyrazin-6(5H)-one] | 11 | 4340
8 | C[C@@H]1CN(C)C(=O)c2c(-c3cccc4nc(-c5cnn(C)c5)c(C(F)F)cc34)nc(C3CCOCC3)n21 [Example 5a, (R)-1-(3-(Difluoromethyl)-2-(1-methyl-1H-pyrazol-4-yl)quinolin-5-yl)-5,7-dimethyl-3-(tetrahydro-2H-pyran-4-yl)-7,8-dihydroimidazo[1,5-a]pyrazin-(5H)-one] | 4 | 353
9 | COCCN1CC(c2nc(-c3cccc4nc(-c5cnn(C)c5)c(C(F)F)cc34)c3n2C(C)C(=O)N(C)C3)C1 (stereo not drawn) [Example 23, 1-(3-(Difluoromethyl)-2-(1-methyl-1H-pyrazol-4-yl)quinolin-5-yl)-3-(1-(2-methoxyethyl)azetidin-3-yl)-5,7-dimethyl-7,8-dihydroimidazo[1,5-a]pyrazin-6(5H)-one] | 94 | 24600
10 | CCC1C(=O)N(C)Cc2c(-c3cccc4nc(-c5cnn(C)c5)c(C(F)F)cc34)nc(C3CCOCC3)n21 (single isomer, unassigned) [Example 64a, 1-(3-(difluoromethyl)-2-(1-methyl-1H-pyrazol-4-yl)quinolin-5-yl)-5-ethyl-7-methyl-3-(tetrahydro-2H-pyran-4-yl)-7,8-dihydroimidazo[1,5-a] pyrazin-6(5H)-one] | 2430 | 25000
11 | CC1C(=O)N(C)Cc2c(-c3cccc4cc(C5CCOCC5)ncc34)nc(C3CCOCC3)n21 (single isomer, unassigned) [Example 15a, 5,7-dimethyl-3-(tetrahydro-2H-pyran-4-yl)-1-(3-(tetrahydro-2H-pyran-4-yl)isoquinolin-8-yl)-7,8-dihydroimidazo[1,5-a]pyrazin-6(5H)-one] | 170 | 19700
12 | CC1C(=O)N(C)Cc2c(-c3c(F)ccc4nc(-c5cnn(C)c5)c(C(F)F)cc34)nc(C3CCOCC3)n21 (single isomer, unassigned) [Example 36b, 1-(3-(Difluoromethyl)-6-fluoro-2-(1-methyl-1H-pyrazol-4-yl)quinolin-5-yl)-5,7-dimethyl-3-(tetrahydro-2H-pyran-4-yl)-7,8-dihydroimidazo[1,5-a]pyrazin-6(5H)-one] | 144 | ≥ 25000
13 | CC1C(=O)N(C)Cc2c(-c3cccc4nc(-c5cnn(C)c5)c(C(F)F)cc34)nc(C3CN(CCO)C3)n21 (stereo not drawn) [Example 28, 1-(3-(Difluoromethyl)-2-(1-methyl-1H-pyrazol-4-yl)quinolin-5-yl)-3-(1-(2-hydroxyethyl)azetidin-3-yl)-5,7-dimethyl-7,8-dihydroimidazo[1,5-a]pyrazin-6(5H)-one] | 123 | 9370
14 | Cc1ncc(-c2cc3cccc(-c4nc(C5CCOCC5)n5c4CN(C)C(=O)C5C)c3cn2)s1 (single isomer, unassigned) [Example 31a, 5,7-Dimethyl-1-(3-(2-methylthiazol-5-yl)isoquinolin-8-yl)-3-(tetrahydro-2H-pyran-4-yl)-7,8-dihydroimidazo[1,5-a]pyrazin-6(5H)-one] | 38 | 2690
15 | CC1C(=O)N(C)Cc2c(-c3cccc4nc(-c5noc(=O)[nH]5)c(C(F)F)cc34)nc(C3CC3)n21 (single isomer, unassigned) [Example 45b, 3-(5-(3-Cyclopropyl-5,7-dimethyl-6-oxo-5,6,7,8-tetrahydroimidazo[1,5-a]pyrazin-1-yl)-3-(difluoromethyl)quinolin-2-yl)-1,2,4-oxadiazol-5(4H)-one] | 29 | 5400
16 | CC1C(=O)N(C)Cc2c(-c3cccc4nc(-c5noc(=O)[nH]5)c(C(F)F)cc34)nc(C3CC3)n21 (single isomer, unassigned) [Example 45a, 3-(5-(3-Cyclopropyl-5,7-dimethyl-6-oxo-5,6,7,8-tetrahydroimidazo[1,5-a]pyrazin-1-yl)-3-(difluoromethyl)quinolin-2-yl)-1,2,4-oxadiazol-5(4H)-one] | 1 | 112
17 | Cc1c(-c2nc3cccc(-c4nc(C5CC5)n5c4CN(C)C(=O)C5C)c3cc2C(F)F)cnn1C (stereo not drawn) [Example 61, 3-cyclopropyl-1-(3-(difluoromethyl)-2-(1,5-dimethyl-1H-pyrazol-4-yl)quinolin-5-yl)-5,7-dimethyl-7,8-dihydroimidazo[1,5-a] pyrazin-6(5H)-one] | 4 | 511
18 | CC1C(=O)N(C)Cc2c(-c3ccc4c(c3)c(-c3cnn(C)c3)nn4C)nc(C3=CCOCC3)n21 (stereo not drawn) [Example 41, 3-(3,6-Dihydro-2H-pyran-4-yl)-5,7-dimethyl-1-(1-methyl-3-(1-methyl-1H-pyrazol-4-yl)-1H-indazol-5-yl)-7,8-dihydroimidazo[1,5-a]pyrazin-6(5H)-one] | 14 | 1620

Reference: patent US10899769B2, “Imidazopiperazinone inhibitors of transcription activating proteins” (Board of Regents, The University of Texas System, priority 2018, dated 2021)
